Results: patent US10927101B2, “Neopetrosides A and B, and synthesis method thereof” (INJE UNIVERSITY INDUSTRY-ACADEMIC COOPERATION FOUNDATION, priority 2016, dated 2021)
Entries after “also recorded” stand apart in the source; their conditions may differ.

How the values were obtained:
[1] = tested on: h9c2 cells; assay: MTT toxicity assay in h9c2 myocardial cells; assay type: cell-based; conditions: 24 hours treatment
Method: In h9c2 cells, myocardial cells, the toxicity of NPS A extracted from Neopetrosia sp. Of Example 1 was confirmed.
The h9c2 cells were dispensed at 2×10^4 cells/well in a 96-well tissue culture plate and cultured for 16 hours. Thereafter, various concentrations of NPS A were treated and cultured for additional 24 hours.
After the culture, a quantitative colorimetric assay using MTT(3-(4,5-dimethylthiazol-2-yl)-2,5-diphenyltetrazolium bromide (Sigma-Aldrich, St. Louis, Mo., USA) was performed to confirm the survival rate of the cells.
The degree of reduction of MTT to intracellular formazan was confirmed by measuring the optical density at 570 nm using a microplate reader (Molecular device, Sunnyvale, Calif., USA).

[2] = tested on: h9c2 cells; assay: Mitochondrial ATP level (Mitochondrial ToxGlo assay); assay type: cell-based; conditions: h9c2 cells, 0, 3 or 10 μM NPS A for 1 hour
Method: Furthermore, mitochondrial ATP levels were measured using the Mitochondrial T ToxGlo™ assay (Promega, Madison, Wis., USA) according to the manufacturer's instructions.
Briefly, h9c2 cells were dispensed at 2×10^6 cells/well in a 60 mm tissue culture plate and cultured for 16 hours and treated with 0, 3, or 10 μM NPS A for 1 hour. The treated cells were all collected and resuspended by pipetting until the cells were uniformly dispersed. The resuspended h9c2 cells were dispensed at 2×10^4 cells/well in a 96-well plate and the plates were centrifuged at 200×g for 10 minutes to remove the medium. Thereafter, 50 μL of fresh medium (except for glucose, containing 10 mM galactose) was added.
The cells were incubated in a humidified incubator at 37° C. supplied with CO2 for 90 minutes. Then, the assay solution (100 μL) was added to the plate and reacted at room temperature for 30 minutes. Luminescence was measured using a luminometer (Molecular Device, Sunnyvale, Calif., USA).

[3] = molecular target: GSK-3β (Homo sapiens, UniProt P49841); assay: Kinase screening and IC50 determination, GSK-3β; assay type: biochemical
Sequence of GSK-3β (P49841 whole entry, species assumed): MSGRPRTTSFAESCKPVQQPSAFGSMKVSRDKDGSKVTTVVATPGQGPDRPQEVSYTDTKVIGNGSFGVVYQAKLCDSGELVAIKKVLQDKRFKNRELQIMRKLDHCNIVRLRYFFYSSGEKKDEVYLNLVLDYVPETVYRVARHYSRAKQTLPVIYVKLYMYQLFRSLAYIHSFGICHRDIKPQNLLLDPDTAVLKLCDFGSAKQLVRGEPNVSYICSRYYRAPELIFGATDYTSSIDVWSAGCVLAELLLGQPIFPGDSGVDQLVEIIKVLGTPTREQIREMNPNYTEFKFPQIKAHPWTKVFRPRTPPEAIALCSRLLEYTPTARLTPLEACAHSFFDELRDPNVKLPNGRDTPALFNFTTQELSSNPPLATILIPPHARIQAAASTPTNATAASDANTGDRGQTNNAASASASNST
Method: (§1) First, kinases regulated by NPS A were screened using a set of kinases related to cardiovascular diseases and diabetes.
(§2) The activity of GSK-3 alpha, GSK-3 beta and mTOR kinase regulated by NPS A was measured to determine the half maximal inhibition dosage.

[4] = tested on: candidate kinases of the first type (cardiovascular diseases); assay: Kinase screening, set of kinases related to cardiovascular diseases; assay type: biochemical
Text: as §1

[5] = molecular target: mTOR (mammalian target of rapamycin) (Homo sapiens, UniProt P42345); assay: Kinase screening and dose-dependence, mTOR; assay type: biochemical
Method: as §1, §2

[6] = tested on: mitochondria extracted from the heart of rats; assay: Oxidative phosphorylation in mitochondria extracted from NPS A-treated rat heart; conditions: mitochondria of I/R rat heart, NPS A treatment
[7] = tested on: ischemic reperfusion heart model; assay: Ischemic reperfusion heart model (Langendorff perfused rat heart); assay type: in vivo, SD rats
Method: 8-week-old male SD rats (200-250 g) were anesthetized by intraperitoneal injection of sodium pentobarbital (100 mg/kg). The chest cavity was exposed and a glass cannula was inserted into the aorta. The heart was quickly cut into thoracotomy, perfused with a normal Tyrode's solution in a Langendorff system and equilibrated with 95% O2 and 5% CO2 at 37° C. for 10 min to remove all blood. The heart of the rat was extirpated and the experiment was performed using a non-circulating system. First, ischemic reperfusion (I/R) model and drug treatment group (NPS A treatment; NPS A 10 μM treatment after ischemia reperfusion) were performed and hypoxic solution was flowed for 30 minutes. After 30 minutes, the normal tyrode solution and NPS A were treated together to restore cardiac function and confirm changes in electrocardiogram. […] After global ischemia (initiating reperfusion), 10 μM of NPS A was administered for 30 minutes.

[8] = Solubility of NPS A in water and organic solvents; assay type: physicochemical
[9] = tested on: h9c2 cells; assay: Glycolysis activity, capacity and reserve with XF24 analyzer; assay type: cell-based; conditions: 10 μM NPS A compared to 20 μM or 30 μM, 1 hour
Method: After treating h9c2 cells with NPS A, the glycolysis activity, the glycolysis capacity and the glycolysis reserve were confirmed using an XF24 analyzer.
h9c2 cells were treated sequentially with 10 mM glucose (G), 1 μM oligomycin (O) and 10 mM 2-dioxyglucose (2DG), treated with NPS A for 1 hour and then measured with an XF24 analyzer.

[10] = tested on: h9c2 cells; assay: Oxygen consumption rate (OCR) / ECAR measurement with XF24 analyzer; assay type: cell-based
Method: For this, the basal oxygen consumption rate (OCR), respiratory related to ATP (adenosine triphosphate), proton leak, maximal capacity and mitochondrial OCR were confirmed.
First, to measure OCR, h9c2 cells were dispensed at 2×10^4 cells/well in an XF24 cell plate (Seahorse Bioscience, Billerica, Mass., USA) and cultured for 16 hours. Thereafter, cells were dispensed with various concentrations of NPS A and cultured for another one hour. After 1 hour, the medium was replaced with 500 μL of XF assay medium-modified DMEM (XF Assay Medium-modified DMEM, Seahorse Bioscience, Billerica, Mass., USA) and incubated for 1 hour in a incubator at 37° C. in absence of CO2.
OCR was measured using an XF24 analyzer (Seahorse Bioscience, Billerica, Mass., USA) and XF24 software. After OCR measurement, the XF 24 assay results were normalized to the cell number and the number of cells in each well was counted by a Luna™ automated cell counter (Logos, Annandale, Va., USA).

[11] = molecular target: GSK-3α (Glycogen synthase kinase-3α) (Homo sapiens, UniProt P49840); assay: Kinase screening and IC50 determination, GSK-3α; assay type: biochemical
Sequence of GSK-3α (Glycogen synthase kinase-3α) (P49840 whole entry, species assumed): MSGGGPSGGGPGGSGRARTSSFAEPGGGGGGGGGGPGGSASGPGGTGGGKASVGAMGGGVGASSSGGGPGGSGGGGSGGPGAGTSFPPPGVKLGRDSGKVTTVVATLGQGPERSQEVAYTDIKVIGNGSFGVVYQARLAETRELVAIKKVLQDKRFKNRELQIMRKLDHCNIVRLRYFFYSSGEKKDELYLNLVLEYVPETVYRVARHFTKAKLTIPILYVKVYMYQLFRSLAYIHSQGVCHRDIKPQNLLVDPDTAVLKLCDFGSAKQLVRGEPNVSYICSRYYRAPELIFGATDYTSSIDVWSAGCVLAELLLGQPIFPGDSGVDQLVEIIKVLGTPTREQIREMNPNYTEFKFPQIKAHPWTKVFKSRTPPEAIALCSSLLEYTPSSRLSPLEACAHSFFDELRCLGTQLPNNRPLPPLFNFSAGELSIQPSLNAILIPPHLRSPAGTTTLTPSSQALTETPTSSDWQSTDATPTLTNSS
Method: as §1, §2

[12] = kinase screening, kinases related with diabetes

O=C([O-])c1ccc[n+](C2OC(COC(=O)c3ccc(O)cc3)C(O)C2O)c1 (centres unmarked) [NPS A, Neopetroside A]
concentration up to which not toxic to the myocardial cells (MTT survival) [1]: ≤ 300 µM
ATP synthesis [2]: stimulates; also recorded: up-regulated
intracellular ATP levels [2]: increases
IC50 [3]: 124 µM
kinase screening result, GSK-3β [3, 12]: inhibited
regulation of candidate kinases of the first type [4]: did not regulate most
mTOR activity according to doses of NPS A ([5]; different doses of NPS A): no change
kinase screening result, mTOR [5, 12]: inhibited
respiratory control ratio (RCP) [6]: recovered
three-stage respiratory depression in mitochondria (OCR) [6]: significantly protected
cardiac rhythm ([7]; 10 μM NPS A during reperfusion): recovered
size of the heart infarction ([7]; 10 μM NPS A during reperfusion): significantly reduced
left ventricular pressure (LV pressure) ([7]; 10 μM NPS A for 30 minutes during reperfusion after 30 minutes global ischemia): effectively restored
solubility in other organic solvents ([8]; other organic solvents): not well soluble
solubility in pyridine and methanol ([8]; pyridine and methanol): dissolves in pyridine and methanol
solubility in water ([8]; water): dissolves in water
glycolysis activity [9]: greatest
glycolysis capacity [9]: greatest
OCR/ECAR ratio [10]: increased
basal ECAR (extracellular acidification rate) [10]: increased
basal OCR ([10]; 1 hour treatment): up-regulated; also recorded: increased
mitochondrial OCR ([10]; 1 hour treatment): up-regulated
oxidative phosphorylation ([10]; 1 hour treatment): up-regulated
respiration associated with ATP ([10]; 1 hour treatment): up-regulated
IC50 [11]: 140 µM
kinase screening result, GSK-3α [11, 12]: inhibited
